The values below come from patent EP0126344A2, “Tripeptide esters of therapeutic agents” (ABBOTT LABORATORIES, priority 1983, dated 1984).

The subject of data set [1] is Staph. aureus, strain 642a. Briefly: In vivo activity: survival of infected mice, intraperitoneal administration (Example 27). The conditions noted are these: for ED50: Staphylococcus aureus, 642A, ip, 120 h, intraperitoneal injection, mice infected with 100 x LD50 Staph. aureus, read-out: effective dose (ED50); for Mice Surviving: 5 days after infection. The method, then:
(§1) Eight groups of ten female CF-1 mice, each weighing 18-20 g. were supplied with food and water ad lib and injected intraperitoneally with a lethal dose (100 x LD50) of Staph. aureus, strain 642a. At 1 and 5 hours after intraperitoneal infection, the mice were administered by intraperitoneal injection equal doses of either erythromycin A ("A") or 4"-L-leu-gly-L-pro-erythromycin A ("B") dissolved in a phosphate buffered saline solution.

Data set [2] has as its system Staph. aureus, strain 642a. The data set can be described thus: In vivo activity: survival of infected mice, subcutaneous administration (Example 28). The conditions noted are these: for ED50: Staphylococcus aureus, 642A, sc, 120 h, subcutaneous administration, mice infected with 100 x LD50 Staph. aureus, read-out: effective dose (ED50); for Mice Surviving: groups of ten mice, five days after infection. The protocol: as §1
The procedure of Example 25 was repeated except that the erythromycin A and 4"-L-leu-gly-L-pro-erythromycin A were administered subcutaneously instead of intraperitoneally.

Data set [3] concerns Staph. aureus, strain 642a. Briefly: In vivo activity: survival of infected mice, oral administration (Example 29). The conditions noted are these: after 0.5 ml homogenized milk; for ED50: Staphylococcus aureus, 642A, 120 h, oral administration, mice infected with 100 x LD50 Staph. aureus, read-out: effective dose (ED50); for Mice Surviving: groups of ten mice, five days after infection. The method, then:
as §1
The procedure of Example 25 was repeated except that the erythromycin A and 4"-L-leu-gly-L-pro erythromycin A were administered orally, and that 0.5 ml of homogenized milk was administered orally to each mouse prior to administration of the test compound to minimize acid degredation of the test compound.

The subject of data set [4] is gastrointestinal tissue. The data set can be described thus: Gastrointestinal motility in anesthetized dogs, strain gauge transducers (Example 30). The conditions noted are these: 1.0 mg./kg. intravenously; strain gauge readings; result in words.
Procedure: Female beagle dogs having a weight of 7.0 to 11.0 kg. were anesthetized with pentobarbital and maintained in surgical anesthesia by supplemental I.V. injections of pentobarbital as needed. The body temperature of each dog was maintained at 36-37° C. The trachea was cannulated and the animal maintained on a respirator at 12 strokes/minute with a volume of 200 ml./stroke. The femoral artery was cannulated for blood pressure recording and both femoral veins were cannulated for intravenous injections and blood collection. Each dog was then prepared for gastrointestinal motility determinations as follows. […]
After an equilibration period of 15 minutes, a dose of 50 pg/.kg. of methacholine was administered intravenously to the dog over a period of thirty seconds and the strain gauge readings were monitored to obtain a standard measurement of reactivity of the gastrointestinal tract.
The strain gauge readings were again monitored to determine effect of the test compound on motility of the gastrointestinal tissue.

Take `CC[C@H]1OC(=O)[C@H](C)[C@@H](O[C@H]2C[C@@](C)(OC)[C@@H](O)[C@H](C)O2)[C@H](C)[C@@H](O[C@@H]2O[C@H](C)C[C@H](N(C)C)[C@H]2O)[C@](C)(O)C[C@@H](C)C(=O)[C@H](C)[C@@H](O)[C@]1(C)O` [A, erythromycin A]: the ED50 in data set [1] is less than 0.4 mg/kg; in data set [2], 2.8 mg/kg; in data set [3] it was 110 mg/kg. For the same compound, the “Mice Surviving” value in data set [1] (total dose 0.4 mg/kg intraperitoneal, groups of ten mice) is listed as 9; in data set [1] (total dose 1.9 mg/kg intraperitoneal, groups of ten mice), 9; in data set [1] (total dose 7.5 mg/kg intraperitoneal, groups of ten mice), 10; in data set [1] (total dose 30 mg/kg intraperitoneal, at 1 and 5 hours after infection, groups of ten female CF-1 mice) it was 10; in data set [2] (total dose 0.4 mg/kg subcutaneous) it was 1; in data set [2] (total dose 1.9 mg/kg subcutaneous), 1. Also, the “Mice Surviving” value is reported as 10 in data set [2] (total dose 7.5 mg/kg subcutaneous); 10 in data set [2] (total dose 30 mg/kg subcutaneous); 0 in data set [3] (total dose 2.3 mg/kg oral); 0 in data set [3] (total dose 9.4 mg/kg oral); 0 in data set [3] (total dose 37.5 mg/kg oral); 7 in data set [3] (total dose 150 mg/kg oral).
For the compound `CC[C@H]1OC(=O)[C@H](C)[C@@H](O[C@H]2C[C@@](C)(OC)[C@@H](OC(=O)[C@@H]3CCCN3C(=O)CNC(=O)[C@@H](N)CC(C)C)[C@H](C)O2)[C@H](C)[C@@H](O[C@@H]2O[C@H](C)C[C@H](N(C)C)[C@H]2O)[C@](C)(O)C[C@@H](C)C(=O)[C@H](C)[C@@H](O)[C@]1(C)O` [B, 4"-L-leu-gly-L-pro-erythromycin A], the ED50 in data set [1] stood at 0.6 mg/kg; in data set [2] it was 3.1 mg/kg; in data set [3], 181 mg/kg. Besides, the “Mice Surviving” value amounted to 5 in data set [1] (total dose 0.6 mg/kg intraperitoneal, groups of ten mice); 10 in data set [1] (total dose 2.6 mg/kg intraperitoneal, groups of ten mice); 10 in data set [1] (total dose 10.5 mg/kg intraperitoneal, groups of ten mice); 10 in data set [1] (total dose 41.1 mg/kg intraperitoneal, groups of ten mice); 2 in data set [2] (total dose 0.6 mg/kg subcutaneous); 5 in data set [2] (total dose 2.6 mg/kg subcutaneous). Besides, the “Mice Surviving” value in data set [2] (total dose 10.5 mg/kg subcutaneous) turned out to be 6; in data set [2] (total dose 41.1 mg/kg subcutaneous), 10; in data set [3] (total dose 3.2 mg/kg oral), 0; in data set [3] (total dose 12.8 mg/kg oral), 0; in data set [3] (total dose 51.3 mg/kg oral) it was 0; in data set [3] (total dose 205 mg/kg oral) it was 6.
In the case of `CC[C@H]1OC(=O)[C@H](C)[C@@H](O[C@H]2C[C@@](C)(OC)[C@@H](O)[C@H](C)O2)[C@H](C)[C@@H](O[C@@H]2O[C@H](C)C[C@H](N(C)C)[C@H]2O)[C@](C)(O)C[C@@H](C)C(=O)[C@H](C)[C@@H](O)[C@]1(C)O` [Erythromycin Lactobionate, erythromycin A lactobionate], the “effect of the test compound on motility of the gastrointestinal tissue” value in data set [4] was “pronounced stimulation of the stomach, duodenum, jejunum and ileum, with no apparent effect on the colon”.

The term ED50 denotes the dose at which the effect has come halfway, by size or by number of responders.
